Experiment [1] has as its target T1, recombinant, purified human Caspase-1 (Homo sapiens, UniProt P29466).
T1 sequence (P29466 120-297 limits assumed): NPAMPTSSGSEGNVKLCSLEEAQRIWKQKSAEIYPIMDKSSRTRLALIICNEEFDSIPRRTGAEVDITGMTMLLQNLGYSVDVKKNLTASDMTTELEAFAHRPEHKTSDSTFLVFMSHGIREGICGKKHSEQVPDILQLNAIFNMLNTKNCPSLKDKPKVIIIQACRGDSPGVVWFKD
T1 sequence (P29466 317-404 limits assumed): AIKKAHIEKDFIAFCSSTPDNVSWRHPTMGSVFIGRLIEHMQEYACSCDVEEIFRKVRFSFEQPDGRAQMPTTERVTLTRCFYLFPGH
Description: Enzyme assay, caspase inhibition (fluorogenic substrate cleavage). The class given is biochemical. Conditions: second order rate constant of enzyme inactivation; substrate Acetyl-Tyr-Val-Ala-Asp-amino-4-methylcoumarin. The source says: (§1) The assays for caspase inhibition are based on the cleavage of a fluorogenic substrate by recombinant, purified human Caspases −1, −3, −7 or −8. The assays are run in essentially the same way as those reported by Garcia-Calvo et al., J. Biol. Chem. 273, 32608-32613 (1998), using a substrate specific for each enzyme. The substrate for Caspase-1 is Acetyl-Tyr-Val-Ala-Asp-amino-4-methylcoumarin and the substrate for Caspases −3, −7 and −8 is Acetyl-Asp-Glu-Val-Asp-amino-4-methylcoumarin both as disclosed in Garcia-Calvo et al., J. Biol. Chem. 273, 32608-32613 (1998).
(§2) The observed rate of enzyme inactivation at a particular inhibitor concentration, kobs, is computed by direct fits of the data to the equation derived by Thornberry et al., Biochemistry, 33, […] (1994) using a nonlinear least-squares analysis computer program (PRISM 2.0; GraphPad software). To obtain the second order rate constant, kinact, kobs values are plotted against their respective inhibitor concentrations and kinact values are subsequently calculated by computerized linear regression.
(§3) Compounds with kinact(M^−1s^−1)>500000 are listed as “A”. Compounds with kinact(M^−1s^−1) between 100000 and 500000 are listed as “B”. Compounds with kinact(M^−1s^−1)<100000 are listed as “C”.

Experiment [2] has as its target T2, recombinant, purified human Caspase-3 (Homo sapiens, UniProt P42574).
T2 sequence (P42574 29-175 limits assumed): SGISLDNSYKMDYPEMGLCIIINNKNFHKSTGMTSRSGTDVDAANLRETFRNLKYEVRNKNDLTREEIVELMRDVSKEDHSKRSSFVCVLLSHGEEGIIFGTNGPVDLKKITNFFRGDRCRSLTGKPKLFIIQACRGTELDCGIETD
T2 sequence (P42574 176-277 limits assumed): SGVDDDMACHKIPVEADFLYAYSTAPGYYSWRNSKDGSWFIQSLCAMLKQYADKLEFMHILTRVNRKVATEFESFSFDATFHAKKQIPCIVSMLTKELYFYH
The experiment is described as above. The class given is biochemical. Conditions: second order rate constant of enzyme inactivation; substrate Acetyl-Asp-Glu-Val-Asp-amino-4-methylcoumarin.
From the text: as §1, §2, §3

The target of experiment [3] is recombinant, purified human Caspase-8 (Homo sapiens, UniProt Q14790). The description is as above. The class given is biochemical. The following applies: second order rate constant of enzyme inactivation; substrate Acetyl-Asp-Glu-Val-Asp-amino-4-methylcoumarin.
From the text: as §1, §2, §3

For experiment [4], the system named is IL-1β secretion from human whole blood. Description: Inhibition of IL-1β secretion from whole blood. The class given is cell-based. The following applies: human whole blood diluted 1:2 in PBS, LPS 5 ng/ml, 18 hours, ELISA. As to the method:
Human blood is freshly drawn from healthy donors and diluted 1:2 in PBS. To 500 μl of diluted blood […] of prediluted test compound in RPMI medium and […] LPS (5 ng/ml final concentration on the plate) are added (LPS, Serotype 0111:B4, Sigma L3012). After stimulation for 18 hours supernatants are collected and assayed for IL-1β levels using the appropriate ELISA kit (R&D systems).
Compounds with an IC50>10 μM are listed as “A”. Compounds with an IC50 between 1 μM and 10 uM are listed as “B”. Compounds with an IC50<1 μM are listed as “C”.
A general note: An ELISA detects its analyte on a solid surface through an enzyme-linked reagent.

For a further experiment, the system named is rat cortical neurons. Description: Hypoxia-induced apoptosis of rat cortical neurons. The class given is cell-based, Wistar rat. Conditions: Cortical neurone, oxygen-depleted serum-free medium, Cell Death Detection ELISA (DNA fragmentation). As to the method: Cortical neurons are dissociated from Wistar rat embryos (E17) by a modification of the procedure of Rogers et al., Brain Res. Bulletin, 44:131 (1998). Briefly, cerebral cortices are isolated aseptically from 15-20 Wistar rat embryos. A cell suspension is prepared by mincing the cerebral cortices and digesting them with papain. Cells are washed with ovomucoid enzyme inhibitor and DNaseI and plated onto Poly-D lysine coated plates in high glucose DMEM containing 10% heat-inactivated fetal calf serum, L-glutamine, penicillin and streptomycin. The yield of neurons is […] per embryo and they are 80-90% viable as assessed by Trypan blue exclusion.
The neurons are cultured in complete medium at 37° C. in a normal atmosphere for 48 hours prior to the hypoxia experiments. For hypoxia, the normal cell medium is replaced by oxygen-depleted serum-free medium. Cells are incubated in an atmosphere of 95% N2/5% CO2 for various lengths of time. Compounds are dissolved in DMSO at 100 mM then diluted in medium and added to the culture from time=0. The level of apoptosis is measured using a Cell Death Detection ELISA kit (Roche) which detects DNA fragmentation. Plates are read at 405 nm. Controls included cells cultured in aerobic conditions in serum-containing medium (+serum) and cells cultured in aerobic conditions in serum-deprived medium (−serum).
Compounds with an IC50>0.5 μM are listed as “A”. Compounds with an IC50 between 0.1 μM and 0.5 uM are listed as “B”. Compounds with an IC50<0.1 μM are listed as “C”.

recombinant, purified human Caspase-8, sequence (Q14790 217-374 limits assumed): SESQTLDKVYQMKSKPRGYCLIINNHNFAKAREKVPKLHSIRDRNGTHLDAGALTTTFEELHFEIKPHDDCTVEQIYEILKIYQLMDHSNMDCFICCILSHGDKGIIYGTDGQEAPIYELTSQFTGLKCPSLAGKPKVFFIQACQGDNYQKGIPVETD
recombinant, purified human Caspase-8, sequence (Q14790 385-479 limits assumed): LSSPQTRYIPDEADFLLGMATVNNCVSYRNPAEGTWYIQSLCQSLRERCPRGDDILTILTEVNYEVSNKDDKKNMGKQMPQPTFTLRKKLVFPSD

One may read the IC50 as the concentration at which inhibition is half-maximal. Lower therefore signals greater potency in that assay. As for `CC[C@@H](C(=O)NC(CC(=O)O)C(=O)CF)n1ccc2ccc(Cl)cc2c1=O` (mixture of isomers) [Compound 1, (S)-3-[2-(7-chloro-1-oxo-1H-isoquinolin-2-yl)-butyrylamino]-5-fluoro-4-oxo-pentanoic acid], the “kinact Caspase-1” value in experiment [1] is reported as “A (Compounds with kinact(M^−1s^−1)>500000 are listed as “A”)”. Also, in experiment [2], the “kinact Caspase-3” value is on record as “A (Compounds with kinact(M^−1s^−1)>500000 are listed as “A”)”. The “kinact Caspase-8” value in experiment [3] was “B (Compounds with kinact(M^−1s^−1) between 100000 and 500000 are listed as “B”)”. Further, the half-maximal inhibitory concentration (IC50) in experiment [4] is below 1000 nM; in the experiment with rat cortical neurons it was 100 to 500 nM.

`CC[C@@H](C(=O)NC(CC(=O)O)C(=O)CF)n1ccc2ccc(C(F)(F)F)cc2c1=O` (mixture of isomers) [Compound 2, (S)-3-[2-(7-trifluoromethyl-1-oxo-1H-isoquinolin-2-yl)-butyrylamino]-5-fluoro-4-oxo-pentanoic acid]: the “kinact Caspase-1” value in experiment [1] is reported as “A (Compounds with kinact(M^−1s^−1)>500000 are listed as “A”)”. The “kinact Caspase-3” value in experiment [2] was “A (Compounds with kinact(M^−1s^−1)>500000 are listed as “A”)”. Moreover, the “kinact Caspase-8” value in experiment [3] is “A (Compounds with kinact(M^−1s^−1)>500000 are listed as “A”)”. Moreover, the 50% inhibitory concentration (IC50) in experiment [4] was below 1000 nM; with rat cortical neurons, above 500 nM.

Consider `CC[C@@H](C(=O)NC(CC(=O)O)C(=O)CF)n1ccc2cc(Cl)ccc2c1=O` (mixture of isomers) [Compound 3, (S)-3-[2-(6-chloro-1-oxo-1H-isoquinolin-2-yl)-butyrylamino]-5-fluoro-4-oxo-pentanoic acid], for which the “kinact Caspase-1” value in experiment [1] was “B (Compounds with kinact(M^−1s^−1) between 100000 and 500000 are listed as “B”)”. In addition, the “kinact Caspase-3” value in experiment [2] is “B (Compounds with kinact(M^−1s^−1) between 100000 and 500000 are listed as “B”)”. Moreover, the “kinact Caspase-8” value in experiment [3] is reported as “C (Compounds with kinact(M^−1s^−1)<100000 are listed as “C”)”. For the same compound, the IC50 lay within 1000 to 10000 nM in experiment [4] and 100 to 500 nM in the experiment on rat cortical neurons.

Consider `CC(C)[C@@H](C(=O)NC(CC(=O)O)C(=O)CF)n1ccc2ccc(Cl)cc2c1=O` (mixture of isomers) [Compound 18, (S)-3-[2-(7-chloro-1-oxo-1H-isoquinolin-2-yl)-3-methylbutyrylamino]-5-fluoro-4-oxo-pentanoic acid], for which the “kinact Caspase-1” value in experiment [1] was “B (Compounds with kinact(M^−1s^−1) between 100000 and 500000 are listed as “B”)”. Moreover, the “kinact Caspase-3” value in experiment [2] was “B (Compounds with kinact(M^−1s^−1) between 100000 and 500000 are listed as “B”)”. Besides, in experiment [3], the “kinact Caspase-8” value was “C (Compounds with kinact(M^−1s^−1)<100000 are listed as “C”)”. Moreover, the values for the IC50 (in experiment [4]; in the experiment with rat cortical neurons) were 1000 to 10000 nM and 100 to 500 nM, respectively.

On to `CC[C@@H](C(=O)NC(CC(=O)O)C(=O)CF)n1ccc2ccc(-c3ccccc3)cc2c1=O` (mixture of isomers) [Compound 21, (S)-3-[2-(7-phenyl-1-oxo-1H-isoquinolin-2-yl)-butyrylamino]-5-fluoro-4-oxo-pentanoic acid], for which the “kinact Caspase-1” value in experiment [1] is on record as “A (Compounds with kinact(M^−1s^−1)>500000 are listed as “A”)”. Also, the “kinact Caspase-3” value in experiment [2] is “A (Compounds with kinact(M^−1s^−1)>500000 are listed as “A”)”. Besides, the “kinact Caspase-8” value in experiment [3] is recorded as “A (Compounds with kinact(M^−1s^−1)>500000 are listed as “A”)”. In addition, the values for the IC50 (in experiment [4]; in the experiment on rat cortical neurons) were 1000 to 10000 nM and 100 to 500 nM, respectively.

With `CC[C@@H](C(=O)NC(CC(=O)O)C(=O)CF)n1ccc2cc(C(F)(F)F)ccc2c1=O` (stereo in doubt) [Compound 4, (S)-3-[2-(6-trifluoromethyl-1-oxo-1H-isoquinolin-2-yl)-butyrylamino]-5-fluoro-4-oxo-pentanoic acid], the “kinact Caspase-1” value in experiment [1] is “B (Compounds with kinact(M^−1s^−1) between 100000 and 500000 are listed as “B”)”. For the same compound, in experiment [2], the “kinact Caspase-3” value is “B (Compounds with kinact(M^−1s^−1) between 100000 and 500000 are listed as “B”)”. For the same compound, in experiment [3], the “kinact Caspase-8” value was “C (Compounds with kinact(M^−1s^−1)<100000 are listed as “C”)”. Also, the IC50 in experiment [4] was 1000 to 10000 nM; in the experiment with rat cortical neurons it was above 500 nM.

For `CC[C@@H](C(=O)N[C@@H](CC(=O)O)C(=O)COc1c(F)c(F)cc(F)c1F)n1cnc2ccc(Cl)cc2c1=O` [Compound 5, (S,S)-3-[2-(6-Chloro-4-oxo-4H-quinazolin-3-yl)-butyrylamino]-4-oxo-5-(2,3,5,6-tetrafluoro-phenoxy)pentanoic acid], the “kinact Caspase-1” value in experiment [1] is reported as “A (Compounds with kinact(M^−1s^−1)>500000 are listed as “A”)”. Also, in experiment [2], the “kinact Caspase-3” value is “A (Compounds with kinact(M^−1s^−1)>500000 are listed as “A”)”. Also, the “kinact Caspase-8” value in experiment [3] is “B (Compounds with kinact(M^−1s^−1) between 100000 and 500000 are listed as “B”)”. Further, the IC50 in experiment [4] is 1000 to 10000 nM; in the experiment with rat cortical neurons, 100 to 500 nM.

As to `CC[C@@H](C(=O)N[C@@H](CC(=O)O)C(=O)COc1c(F)c(F)cc(F)c1F)n1cnc2ccccc2c1=O` [Compound 6, (S,S)-4-Oxo-3-[2-(4-oxo-4H-quinazolin-3-yl)-butyrylamino]-5-(2,3,5,6-tetrafluoro-phenoxy)pentanoic acid], the “kinact Caspase-1” value in experiment [1] is “B (Compounds with kinact(M^−1s^−1) between 100000 and 500000 are listed as “B”)”. Further, the “kinact Caspase-3” value in experiment [2] is “A (Compounds with kinact(M^−1s^−1)>500000 are listed as “A”)”. Further, the “kinact Caspase-8” value in experiment [3] is “C (Compounds with kinact(M^−1s^−1)<100000 are listed as “C”)”. Also, the IC50 in experiment [4] is 1000 to 10000 nM; with rat cortical neurons, 100 to 500 nM.

For `CC[C@@H](C(=O)N[C@@H](CC(=O)O)C(=O)COc1c(F)cc(F)cc1F)n1cnc2ccccc2c1=O` [Compound 7, (S,S)-4-Oxo-3-[2-(4-oxo-4H-quinazolin-3-yl)-butyrylamino]-5-(2,4,6-trifluoro-phenoxy)-pentanoic acid], the “kinact Caspase-1” value in experiment [1] is “C (Compounds with kinact(M^−1s^−1)<100000 are listed as “C”)”. Moreover, the “kinact Caspase-3” value in experiment [2] is “B (Compounds with kinact(M^−1s^−1) between 100000 and 500000 are listed as “B”)”. The “kinact Caspase-8” value in experiment [3] is given as “C (Compounds with kinact(M^−1s^−1)<100000 are listed as “C”)”. Besides, the values for the IC50 (in experiment [4]; with rat cortical neurons) were above 10000 nM and above 500 nM, respectively.

For `CC[C@@H](C(=O)N[C@@H](CC(=O)O)C(=O)COc1c(F)ccc(F)c1F)n1cnc2ccccc2c1=O` [Compound 8, (S,S)-4-Oxo-3-[2-(4-oxo-4H-quinazolin-3-yl)-butyrylamino]-5-(2,5,6-trifluoro-phenoxy)-pentanoic acid], in experiment [1], the “kinact Caspase-1” value was “B (Compounds with kinact(M^−1s^−1) between 100000 and 500000 are listed as “B”)”. For the same compound, the “kinact Caspase-3” value in experiment [2] was “B (Compounds with kinact(M^−1s^−1) between 100000 and 500000 are listed as “B”)”. In addition, in experiment [3], the “kinact Caspase-8” value is listed as “C (Compounds with kinact(M^−1s^−1)<100000 are listed as “C”)”. For the same compound, the half-inhibitory concentration (IC50) in experiment [4] was 1000 to 10000 nM; with rat cortical neurons, 100 to 500 nM.
